From patent EP0290169A2, “Diamineplatinum complexes with phosphonocarboxylate and substituted phosphonocarboxylate ligands as antitumor agents” (ENGELHARD CORPORATION, priority 1987, dated 1988)

What was measured:
[1] = tested on: L1210 leukemia; assay: L1210 screening (L1210 leukemia tumor model), increase in life span; format: in vivo, Female CDF1 mice; details: for Surv.: survivors
Protocol: Female CDF1 mice (16-22 g) are injected with a suspension of 1 x 10^6 tumor cells in 0.5 mL of 0.15 M saline on day zero. On day one, the mice receive the test compound in 0.5 mL of the chosen medium (usually water). Six mice were used for each test dose, with six doses normally being run. Normal controls (six mice) receive tumor on day zero and 0.5 mL of the test medium on day one. Positive controls (six mice) receive tumor on day zero and 8 mg/kg cisplatin in 0.5 mL of 0.15 M saline on day one. All compound doses are adjusted for the actual average weight of the mice involved. Testing is terminated at three times the normal control mean life span. The percent increase in lifespan (ILS) is calculated as follows: %ILS = [(mean life span (test)/mean life span(control)-I]x100 A 25% ILS or greater indicates activity. The maximum possible ILS is 200%. The positive control must have an ILS of S 25% for the test to be considered valid.
The tumor line is maintained by transfer of 5 x 10^4- cells in 0.1 mL saline every seven days. DBA/2 (18-22 g) mice are employed for tumor transfers

[2] = tested on: Sarcoma 180 ascites; assay: S180a screening (Sarcoma 180 ascites tumor model), increase in life span; format: in vivo, CFW mice; details: for Surv.: survivors on day of evaluation
Protocol: CFW mice, averaging 20 g, are innoculated on day zero with 0.2 mL of a freshly prepared saline suspension (0.15 M NaCI) containing 1 × 10^7 tumor cells/mL, or a total of 2 x 10^6 cells. On day I, the mice are injected with the test compound in the selected medium (usually water). Six mice are used per test dose, with six doses normally being run.
Also, on day one, two types of controls (6 mice/set are employed: (1) Normal (1 set): 0.5 mL of the solvent medium used for the test compound, and (2) Positive control (1 set): cis-[Pt(NH3)2Cl2] in saline at 8 mg/kg.
The effectiveness of a compound is measured in terms of the increase in life span (ILS) of the test animals relative to the controls calculated from the day of tumor inoculation (day zero). The day of evaluation is arbitrarily taken as that day corresponding to twice the mean life-span of the normal controls. This sets a practical upper limit of 100% on the ILS attainable. For calculation purposes, survivors on the day of evaluation are considered to have died on that day. The % ILS is formulated as: [formula]
ILS values above 50% represent activity. The positive controls must have an ILS of ≧ 50% for the test to be valid.

[3] = dose 5.00 mg/kg on day 1, vehicle water
[4] = dose 10.00 mg/kg on day 1, vehicle water
[5] = dose 20.00 mg/kg on day 1, vehicle water
[6] = dose 40.00 mg/kg on day 1, vehicle water
[7] = dose 80.00 mg/kg on day 1, vehicle water
[8] = dose 160.00 mg/kg on day 1, vehicle water
[9] = dose 320.00 mg/kg on day 1, vehicle water
[10] = dose 5.00 mg/kg on day 1, vehicle water, pH7
[11] = dose 10.00 mg/kg on day 1, vehicle water, pH7
[12] = dose 20.00 mg/kg on day 1, vehicle water, pH7
[13] = dose 40.00 mg/kg on day 1, vehicle water, pH7
[14] = dose 80.00 mg/kg on day 1, vehicle water, pH7
[15] = dose 160.00 mg/kg on day 1, vehicle water, pH7

Row | Structure (SMILES) | %ILS [1, 4] [%] | Surv. [1, 4] | %ILS [1, 5] [%] | Surv. [1, 5] | %ILS [1, 6] [%] | Surv. [1, 6] | %ILS [1, 7] [%] | Surv. [1, 7] | %ILS [1, 8] [%] | Surv. [1, 8] | %ILS [2, 6] [%] | Surv. [2, 6] | %ILS [2, 7] [%] | Surv. [2, 7] | %ILS [2, 8] [%] | Surv. [2, 8] | %ILS [2, 5] [%] | Surv. [2, 5] | other results
1 | NC1CCCCC1N.O=C1[O][Pt][O]P(=O)([O-])C1c1ccccc1.[Na+] (mixture of isomers) [Ex 6, Na[Pt(trans-R,R-dach)(2-phosphonophenytacetate)]] | 6 | 0/ 6 | 26 | 0/ 6 | 47 | 0/ 6 | 53 | 0/ 6 | 76 | 0/ 6 | 24 | 0/ 6 | 88 | 2/ 6 | 102 | 5/ 6 |  |  | %ILS [1, 3]: 2%; Surv. [1, 3]: 0/ 6
2 | CC(N)CN.CCC1C(=O)[O][Pt][O]P1(=O)[O-].[Na+] (mixture of isomers) [Ex 8, Na[Pt(pn)(2-phosphonobutyrate)]] | -6 | 0/ 6 | -9 | 0/ 6 | 0 | 0/ 6 | -2 | 0/ 6 | 16 | 0/ 6 | 46 | 0/ 6 | 38 | 0/ 6 | 95 | 4/ 6 | 4 | 0/ 6 | %ILS [1, 9]: -44%; Surv. [1, 9]: 0/ 6; %ILS [2, 3]: 4%; Surv. [2, 3]: 0/ 6; %ILS [2, 4]: 19%; Surv. [2, 4]: 0/ 6
3 | CC(N)CN.CC1C(=O)[O][Pt][O]P1(=O)[O-].[Na+] (mixture of isomers) [Ex 12, Na[Pt(pn)(2-phosphonopropionate)]] |  |  |  |  |  |  |  |  |  |  | 24 | 0/ 6 | 40 | 0/ 6 | 53 | 1/ 6 | 20 | 0/ 6 | 
4 | N.N.O=C1[O][Pt][O]P(=O)([O-])C1c1ccccc1.[Na+] (racemic) [Ex 7, Na[cis-Pt(NHs)2(2-phosphonophenylacetate)]] |  |  |  |  |  |  |  |  |  |  | 26 | 0/ 6 | 71 | 2/ 6 | 28 | 0/ 6 | 14 | 0/ 6 | 
5 | CC(N)CN.O=C1CP(=O)(O)[O][Pt][O]1 (racemic) [Ex 10, H[Pt(pn)(phasphonoacetate)]] | 2 | 0/ 6 | -13 | 0/ 6 | -13 | 0/ 6 | -34 | 0/ 6 | -52 | 0/ 6 | 9 | 1/ 6 | -71 | 0/ 6 | -78 | 0/ 6 | 77 | 3/ 6 | %ILS [1, 3]: -5%; Surv. [1, 3]: 0/ 6; %ILS [2, 9]: -79%; Surv. [2, 9]: 0/ 6
6 | CCC1C(=O)[O][Pt][O]P1(=O)[O-].N.N.[Na+] (racemic) [Ex 14, Na[cis-Pt(NH3)2(2-phosphonobutyrate)]] | -10 | 0/ 6 | -8 | 0/ 6 | -15 | 0/ 6 | -5 | 0/ 6 | -67 | 0/ 6 |  |  |  |  |  |  |  |  | %ILS [1, 9]: -80%; Surv. [1, 9]: 0/ 6
7 | CC1C(=O)[O][Pt][O]P1(=O)[O-].N.N.[Na+] (racemic) [Ex 15, Na[cis-Pt(NH3)2(2-phosphonopropionate)]] |  |  |  |  |  |  |  |  |  |  | -7 | 0/ 6 | -80 | 0/ 6 | -80 | 0/ 6 | 1 | 0/ 6 | %ILS [2, 4]: 16%; Surv. [2, 4]: 1/ 6
8 | CCCC1C(=O)[O][Pt][O]P1(=O)[O-].N.N.[Na+] (racemic) [Ex 19, Na[cis-Pt(NH3)2(2-phosphonovalerate)]] |  |  |  |  |  |  |  |  |  |  | -85 | 0/ 6 | -95 | 0/ 6 | -95 | 0/ 6 | -74 | 0/ 6 | 
9 | CC(C)N.CC(C)N.O=C1CP(=O)([O-])[O][Pt][O]1.[Na+] [Ex 9, Na[cis-Pt(i-PrNH2)2(phosphonoacetate)]] |  |  |  |  |  |  |  |  |  |  | -2 | 0/ 6 | -4 | 0/ 6 | 15 | 0/ 6 | 1 | 0/ 6 | %ILS [2, 9]: 17%; Surv. [2, 9]: 0/ 6
10 | NCCN.O=C1[O][Pt][O]P1(=O)O [Ex 13, H[Pt(en)(phosphonoformate)]] |  |  |  |  |  |  |  |  |  |  |  |  |  |  |  |  |  |  | %ILS [2, 10]: 9%; Surv. [2, 10]: 0/ 6; %ILS [2, 11]: 31%; Surv. [2, 11]: 1/ 6; %ILS [2, 12]: 63%; Surv. [2, 12]: 1/ 6; %ILS [2, 13]: 93%; Surv. [2, 13]: 5/ 6; %ILS [2, 14]: 58%; Surv. [2, 14]: 2/ 6; %ILS [2, 15]: -74%; Surv. [2, 15]: 0/ 6
11 | NCCN.O=C1CP(=O)(O)[O][Pt][O]1 [Ex 16, H[Pt(en)(phosphonoacetate)]] |  |  |  |  |  |  |  |  |  |  | 64 | 3/ 6 | 84 | 4/ 6 | 85 | 3/ 6 | 29 | 1/ 6 | %ILS [2, 3]: -2%; %ILS [2, 10]: -3%; Surv. [2, 10]: 0/ 6; Surv. [2, 3]: 0/ 6; %ILS [2, 4]: 3%; %ILS [2, 11]: 2%; Surv. [2, 11]: 0/ 6; Surv. [2, 4]: 0/ 6; %ILS [2, 12]: 14%; Surv. [2, 12]: 0/ 6; %ILS [2, 13]: 72%; Surv. [2, 13]: 2/ 6; %ILS [2, 14]: 93%; Surv. [2, 14]: 4/ 6; %ILS [2, 15]: -32%; Surv. [2, 15]: 1/ 6
12 | N.N.O=C1CP(=O)([O-])[O][Pt][O]1.[Na+] [Ex 21, Na(cis-Pt(NH3)2(phosphonoacetate)]] | -10 | 0/ 6 | -5 | 0/ 6 | 13 | 0/ 6 | 12 | 0/ 6 | 10 | 0/ 6 |  |  |  |  |  |  |  |  | %ILS [1, 9]: -80%; Surv. [1, 9]: 0/ 6
